Measurements published in ChEMBL document CHEMBL4033732, “Identification and synthesis of novel inhibitors of mycobacterium ATP synthase” (Bioorg Med Chem Lett, 2017).
pIC50: −log10 of the molar value. ≈ marks a conversion by molar mass, not a printed value.

What was measured:
[1] = Inhibition of ATP synathse in Mycobacterium smegmatis str. MC2 155 inverted membrane vesicles assessed as ATP formation pre-incubated for 30 mins before NADH-ADP-phosphate buffer cocktail addition and measured after 60 mins by kinase glow reagent based assay; set-up: species or system Mycolicibacterium smegmatis MC2 155
[2] = system: Mycobacterium tuberculosis; assay: Antimicrobial activity against Mycobacterium tuberculosis H37Rv assessed as reduction in microbial growth incubated for 5 days by CLSI protocol based assay; assay type: functional; settings: 120 h
[3] = target: CYP2C19 (Homo sapiens, UniProt P33261); assay: Inhibition of CYP2C19 in human liver microsomes at 10 uM; assay type: ADME
CYP2C19, sequence (P33261 whole entry): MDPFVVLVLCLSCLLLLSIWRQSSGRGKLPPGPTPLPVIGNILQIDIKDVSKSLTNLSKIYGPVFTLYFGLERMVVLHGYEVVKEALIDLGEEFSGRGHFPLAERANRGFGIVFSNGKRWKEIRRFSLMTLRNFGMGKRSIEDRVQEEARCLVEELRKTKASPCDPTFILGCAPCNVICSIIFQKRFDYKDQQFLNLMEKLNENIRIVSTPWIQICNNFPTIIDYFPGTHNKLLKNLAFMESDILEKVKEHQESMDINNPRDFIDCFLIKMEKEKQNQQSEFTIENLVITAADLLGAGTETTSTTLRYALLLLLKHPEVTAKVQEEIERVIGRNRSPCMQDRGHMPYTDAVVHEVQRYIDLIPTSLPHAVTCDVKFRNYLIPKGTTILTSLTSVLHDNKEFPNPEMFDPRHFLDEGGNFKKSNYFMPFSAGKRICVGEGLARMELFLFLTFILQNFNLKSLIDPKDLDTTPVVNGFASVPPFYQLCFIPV

[4] = system: HeLa; assay: Cytotoxicity against human HeLa cells incubated for 48 hrs by MTT assay; assay type: functional
[5] = target: CYP2C9 (Homo sapiens, UniProt P11712); assay: Inhibition of CYP2C9 in human liver microsomes at 10 uM; assay type: ADME
CYP2C9, sequence (P11712 whole entry): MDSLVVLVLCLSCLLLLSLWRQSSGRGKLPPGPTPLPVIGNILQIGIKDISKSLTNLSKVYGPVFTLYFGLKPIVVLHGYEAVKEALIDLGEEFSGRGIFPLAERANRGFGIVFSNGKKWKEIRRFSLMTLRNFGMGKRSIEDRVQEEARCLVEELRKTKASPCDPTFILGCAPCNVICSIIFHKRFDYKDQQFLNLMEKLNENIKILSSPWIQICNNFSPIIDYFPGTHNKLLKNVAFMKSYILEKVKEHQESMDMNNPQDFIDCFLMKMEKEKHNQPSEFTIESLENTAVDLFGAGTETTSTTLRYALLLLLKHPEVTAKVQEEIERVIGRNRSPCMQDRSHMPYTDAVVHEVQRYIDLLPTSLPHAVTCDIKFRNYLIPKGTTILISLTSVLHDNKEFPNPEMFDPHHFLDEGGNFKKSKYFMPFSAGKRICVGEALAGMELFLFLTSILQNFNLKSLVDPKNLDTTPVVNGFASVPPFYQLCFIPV

[6] = Lipophilicity, log D of the compound; assay type: physicochemical; settings: octanol/water
[7] = target: T1, CYP1A2 (Homo sapiens, UniProt P05177); assay: Inhibition of CYP1A2 in human liver microsomes at 10 uM; assay type: ADME
T1 sequence (P05177 whole entry): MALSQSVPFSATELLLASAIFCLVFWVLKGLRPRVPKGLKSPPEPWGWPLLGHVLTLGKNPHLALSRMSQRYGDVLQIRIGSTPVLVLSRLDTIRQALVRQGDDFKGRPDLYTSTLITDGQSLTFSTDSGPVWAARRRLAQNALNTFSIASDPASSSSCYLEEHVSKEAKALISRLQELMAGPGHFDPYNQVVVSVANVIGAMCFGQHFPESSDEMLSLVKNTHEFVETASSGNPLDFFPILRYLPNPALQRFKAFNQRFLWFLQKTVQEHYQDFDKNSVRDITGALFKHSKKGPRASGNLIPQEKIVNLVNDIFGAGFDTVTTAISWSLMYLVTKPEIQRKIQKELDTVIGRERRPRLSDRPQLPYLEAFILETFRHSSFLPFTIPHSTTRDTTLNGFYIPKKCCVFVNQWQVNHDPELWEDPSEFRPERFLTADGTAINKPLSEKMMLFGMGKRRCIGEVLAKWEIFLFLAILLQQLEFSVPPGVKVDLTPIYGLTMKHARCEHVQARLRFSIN

[8] = target: CYP2D6 (Homo sapiens, UniProt P10635); assay: Inhibition of CYP2D6 in human liver microsomes at 10 uM; assay type: ADME
CYP2D6, sequence (P10635 whole entry): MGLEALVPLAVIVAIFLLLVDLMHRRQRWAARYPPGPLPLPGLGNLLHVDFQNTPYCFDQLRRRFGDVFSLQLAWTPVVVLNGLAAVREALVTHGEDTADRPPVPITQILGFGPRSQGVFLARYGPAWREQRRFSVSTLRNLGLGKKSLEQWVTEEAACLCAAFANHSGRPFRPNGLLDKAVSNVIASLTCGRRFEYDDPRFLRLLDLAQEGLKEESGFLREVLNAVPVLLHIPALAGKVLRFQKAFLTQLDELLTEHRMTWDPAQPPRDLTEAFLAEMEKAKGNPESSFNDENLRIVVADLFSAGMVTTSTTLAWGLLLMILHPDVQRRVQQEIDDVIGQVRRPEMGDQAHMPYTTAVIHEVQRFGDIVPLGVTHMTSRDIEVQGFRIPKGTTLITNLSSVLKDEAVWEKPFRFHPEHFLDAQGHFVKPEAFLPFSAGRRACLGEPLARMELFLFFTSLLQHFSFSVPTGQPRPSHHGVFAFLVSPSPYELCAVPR

[9] = Solubility in pH 6.8 buffer; assay type: physicochemical
[10] = target: CYP3A4 (Homo sapiens, UniProt P08684); assay: Inhibition of CYP3A4 in human liver microsomes at 10 uM; assay type: ADME
CYP3A4, sequence (P08684 whole entry): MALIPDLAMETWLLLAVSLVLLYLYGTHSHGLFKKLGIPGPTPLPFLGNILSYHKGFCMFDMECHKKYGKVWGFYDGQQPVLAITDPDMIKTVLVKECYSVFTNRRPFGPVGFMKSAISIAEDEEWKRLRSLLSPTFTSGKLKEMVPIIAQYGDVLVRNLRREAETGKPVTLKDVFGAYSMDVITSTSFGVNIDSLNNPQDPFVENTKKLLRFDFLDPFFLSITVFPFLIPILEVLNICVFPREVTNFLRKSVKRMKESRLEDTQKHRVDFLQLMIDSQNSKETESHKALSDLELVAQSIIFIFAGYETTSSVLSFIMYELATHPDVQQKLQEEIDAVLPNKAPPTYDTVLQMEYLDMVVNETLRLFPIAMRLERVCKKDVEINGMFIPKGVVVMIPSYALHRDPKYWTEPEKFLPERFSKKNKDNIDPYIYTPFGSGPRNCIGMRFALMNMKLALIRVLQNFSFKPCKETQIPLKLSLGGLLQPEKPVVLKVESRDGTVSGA

Row | SMILES | pIC50 [1] | MIC [2] [µg/mL] | inhibition at 10 µM [3] [%] | GI50 [4] [µg/mL] | inhibition at 10 µM [5] [%] | logD [6] | inhibition at 10 µM [7] [%] | inhibition at 10 µM [8] [%] | solubility [9] [µg/mL] | inhibition at 10 µM [10] [%]
1 | CN(C)C(=O)c1cc2n(n1)CCN(Cc1ccc(Cl)c(Cl)c1)C2=O | < 5.00 | > 32 | – | – | – | – | – | – | – | –
2 | CC(=O)N1CCN(C(=O)c2cc3n(n2)CCN(Cc2ccc(Cl)c(Cl)c2)C3=O)CC1 | < 5.00 | > 32 | – | – | – | – | – | – | – | –
3 | O=C(c1cc2n(n1)CCN(CC1CCCCC1)C2=O)N1CCCCC1 | < 5.00 | > 32 | – | – | – | – | – | – | – | –
4 | O=C(c1cn2ccn(Cc3ccc(Cl)c(Cl)c3)c(=O)c2n1)N1CCCCC1 | 6.28 | 4 | 6 | > 100 | 0 | 3.6 | 3 | 0 | 1.2 (≈ 2.96 µM) | 0
5 | CC(C)(C)OC(=O)N1CCN(C(=O)c2cc3n(n2)CCN(Cc2ccc(Cl)c(Cl)c2)C3=O)CC1 | < 5.00 | > 32 | – | – | – | – | – | – | – | –
6 | COc1nc2ccc(Br)cc2cc1C(c1ccccc1)C(O)(CCN(C)C)c1cccc2ccccc12 (racemic) | 7.70 | 0.25 | – | – | – | – | – | – | – | –
7 | CN1CCN(C(=O)c2cc3n(n2)CCN(Cc2ccc(Cl)c(Cl)c2)C3=O)CC1 | < 5.00 | > 32 | – | – | – | – | – | – | – | –
8 | CC(C)(C)c1ccc(CN2CCn3nc(C(=O)N4CCCCC4)cc3C2=O)cc1 | 6.54 | 8 | 0 | > 100 | 19 | 4 | 17 | 0 | 54 (≈ 137 µM) | 0
9 | CC(c1ccc(Cl)c(Cl)c1)N1CCn2nc(C(=O)N3CCCCC3)cc2C1=O (racemic) | < 5.00 | > 32 | – | – | – | – | – | – | – | –
10 | O=C(c1cc2n(n1)CCN(Cc1cccc(-c3ccccc3)c1)C2=O)N1CCCCC1 | 7.34 | 8 | – | > 100 | – | – | – | – | – | –
11 | CC(C)(C)c1ccc(Cn2ccn3cc(C(=O)N4CCCCC4)nc3c2=O)cc1 | 5.33 | > 32 | 0 | > 100 | 2 | 4.1 | 0 | 6 | 2.7 (≈ 6.88 µM) | 0
12 | O=C(c1cc2n(n1)CCN(Cc1ccccc1)C2=O)N1CCCCC1 | < 5.00 | > 32 | – | – | – | – | – | – | – | –
13 | O=C(c1cc2c(=O)n(Cc3ccc(Cl)c(Cl)c3)ccn2n1)N1CCCCC1 | 6.09 | 4 | 11 | > 100 | 28 | 3.5 | 0 | 30 | < 1 | 0
14 | O=C(c1cc2n(n1)C(O)CN(Cc1ccc(Cl)c(Cl)c1)C2=O)N1CCCCC1 (stereo not drawn) | 5.98 | 32 | 31 | > 100 | 24 | 3.1 | 1 | 21 | < 1 | 0
15 | CC(C)(C)c1ccc(CN2CC(O)n3nc(C(=O)N4CCCCC4)cc3C2=O)cc1 (stereo not drawn) | 5.48 | 16 | 4 | > 100 | 29 | 3 | 0 | 48 | 40 (≈ 97.4 µM) | 0
16 | O=C(c1cc2n(n1)CCCN(Cc1ccc(Cl)c(Cl)c1)C2=O)N1CCCCC1 | 6.54 | 8 | 0 | > 100 | 13 | 2.1 | 13 | 0 | 109 (≈ 259 µM) | 0
17 | O=C(c1cc2n(n1)CCN(Cc1ccc(Cl)c(Cl)c1)C2=O)N1CCNCC1 | < 5.00 | > 32 | – | – | – | – | – | – | – | –
18 | CN(C)CCOc1ccc(NC(=O)c2cc3n(n2)CCN(Cc2ccc(Cl)c(Cl)c2)C3=O)cc1 | < 5.00 | > 32 | – | – | – | – | – | – | – | –
19 | CC(C)(C)c1ccc(Cn2ccn3nc(C(=O)N4CCCCC4)cc3c2=O)cc1 | 6.55 | 2 | 31 | 32 (≈ 81.4 µM) | 46 | 3.7 | 0 | 14 | < 1 | 0
20 | O=C(c1cc2n(c1)CCN(Cc1ccc(Cl)c(Cl)c1)C2=O)N1CCCCC1 | 5.81 | 8 | – | > 100 | – | – | – | – | – | –
21 | Cc1cccc(CN2CCn3nc(C(=O)N4CCCCC4)cc3C2=O)c1 | 7.38 | 16 | – | > 100 | – | – | – | – | – | –
22 | O=C(c1cc2n(n1)CCN(Cc1ccc(Cl)cc1)C2=O)N1CCCCC1 | 5.98 | 8 | – | > 100 | – | – | – | – | – | –
23 | O=C(c1cc2n(n1)CCN(c1ccc(Cl)c(Cl)c1)C2=O)N1CCCCC1 | < 5.00 | > 32 | – | – | – | – | – | – | – | –
24 | CN1CCn2nc(C(=O)N3CCCCC3)cc2C1=O | < 5.00 | > 32 | – | – | – | – | – | – | – | –
25 | O=C(c1cc2n(n1)CCN(Cc1ccc(Cl)c(Cl)c1)C2=O)N1CCCCC1 | 6.57 | 16 | 0 | > 100 | 11 | 3.8 | 13 | 0 | 7.2 (≈ 17.7 µM) | 16
26 | O=C(c1cc2n(n1)CCN(Cc1ccccc1Cl)C2=O)N1CCCCC1 | < 5.00 | > 32 | – | – | – | – | – | – | – | –
27 | O=C(c1cc2n(n1)CCN(Cc1ccc(Cl)c(Cl)c1)C2=O)N1CCCC1 | < 5.00 | > 32 | – | – | – | – | – | – | – | –
28 | O=C(c1cc2n(n1)CCN(Cc1cccc(Cl)c1)C2=O)N1CCCCC1 | 6.96 | 8 | – | > 100 | – | – | – | – | – | –
29 | Cc1ccc(CN2CCn3nc(C(=O)N4CCCCC4)cc3C2=O)cc1 | 6.28 | 8 | – | > 100 | – | – | – | – | – | –
30 | O=C(c1cc2n(n1)CCN(Cc1ccc(Cl)c(Cl)c1)C2=O)N1CCC(c2ccccc2)CC1 | < 5.00 | > 32 | – | – | – | – | – | – | – | –
